These results are taken from PubChem BioAssay AID732 (Emory University Molecular Libraries Screening Center, 2007).

Where “and” joins values, the source holds several entries; their conditions need not be identical. Equal values may be shown once. Calls of active or inactive are those of the source. The rule behind the calls is not given here.

The assay concerns in vivo angiogenesis, blood vessel count. The assay can be described thus: reduction of blood vessel formation in vivo – HTS, in vivo study (AID 732).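 Note: zebrafish embryos dosed at one day post fertilization; 0% = reference inhibitor and 100% = plate mean.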 To be noted: hits give low values;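 tested at 30 µM in the well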.
With `CCCCN1CCC(n2c(=O)[nH]c3ccccc32)CC1`, the vessel count % control is 67.2% (inactive).
With `CCC(=O)N1CCN(C(=O)c2ccccc2)CC1` the figure was 134% (inactive).
With `CCN1C(=O)C=CC1=O` the figure was 104% (inactive).
With `Cc1ccc(C(=O)O[C@H](C(=O)O)[C@H](OC(=O)c2ccc(C)cc2)C(=O)O)cc1` (tested in a mixture with another compound) the figure was 109% (inactive).
With `CCCN(CCC)CCc1ccc(O)c(O)c1`, the vessel count % control was 86.9% (inactive).
As for `C#CCN(C)Cc1ccccc1`, the vessel count % control is 91.4% (inactive).
With `CC(N)(Cc1ccc(O)c(O)c1)C(=O)O` (stereo not given) the figure was 108% (inactive); with `O=C1C(SCCO)=C(SCCO)C(=O)c2ccccc21`, 0% (inactive).
Take `NC(N)=[N+]1CCc2ccccc2C1`: the vessel count % control was 113% (inactive).
With `CSC(N)=NCCC[C@H](N)C(=O)O` the figure was 107% (inactive); with `NC(=O)c1ccc(OCC(O)CN2CC=C(c3ccc(F)cc3)CC2)cc1` (stereo not given), 79.7% (inactive).
With `CN1C(=O)CCS(=O)(=O)C1c1ccc(Cl)cc1` (stereo not given) the figure was 97% (inactive); with `CCCCCN(CCCCC)C(=O)C(CCC(=O)O)NC(=O)c1ccc(Cl)c(Cl)c1` (stereo not given), 81.3% (inactive); with `COC(=O)[C@H]1[C@H]2C[C@H]3c4[nH]c5ccccc5c4CCN3C[C@H]2CC[C@@H]1O`, 110% (inactive).
With `N[C@@H](CCC(=O)N[C@H](CSN=O)C(=O)NCC(=O)O)C(=O)O` the figure was 97.4% (inactive).
For the molecule `CC[C@@H]1Cc2cc(O)ccc2C2=C1c1ccc(O)cc1C[C@H]2CC`, the vessel count % control is 99.8% (inactive).
With `N[C@@H](CS(=O)O)C(=O)O` the figure was 111% (inactive); with `CC(C)(Sc1ccc(CCN(CCCCC2CCCCC2)C(=O)NC2CCCCC2)cc1)C(=O)O`, 103% (inactive).
With `COC(=O)c1c(-c2cc(OC)c(OC)c(OC)c2)c2ccnc(OCc3ncccn3)c2c(=O)n1Cc1ccnc(C)c1` the figure was 99.4% (inactive).
With `CN[C@H](CC(C)C)C(=O)N[C@H]1C(=O)N[C@@H](CC(N)=O)C(=O)N[C@H]2C(=O)N[C@H]3C(=O)N[C@H](C(=O)N[C@H](C(=O)O)c4cc(O)cc(O)c4-c4cc3ccc4O)[C@H](O)c3ccc(c(Cl)c3)Oc3cc2cc(c3O[C@@H]2O[C@H](CO)[C@@H](O)[C@H](O)[C@H]2O[C@H]2C[C@](C)(N)[C@H](O)[C@H](C)O2)Oc2ccc(cc2Cl)[C@H]1O` the figure was 103% (inactive).
Consider `CCCCCCCCCC(=O)NC(CN1CCOCC1)[C@H](O)c1ccccc1` (stereo not given in full), for which the vessel count % control is 74% (inactive).
With `CC(=O)OCC1=C(C(=O)O)N2C(=O)[C@@H](NC(=O)Cc3cccs3)[C@H]2SC1` the figure was 132% (inactive); with `N#Cc1cc2nc(O)c(O)nc2cc1[N+](=O)[O-]`, 94.9% (inactive); with `CSc1nc(N)c2ncn([C@@H]3O[C@H](COP(=O)(O)OP(=O)(O)O)[C@H](O)C3O)c2n1` (stereo not given in full), 83.5% (inactive).
With `O=C(O)c1cccnc1Nc1cccc(C(F)(F)F)c1` the figure was 102% (inactive).
With `CCCN1CCC[C@H](c2cccc(O)c2)C1` the figure was 77.4% (inactive).
Consider `Cc1o[nH]c(=O)c1CC(N)C(=O)O` (stereo not given), for which the vessel count % control was 104% (inactive).
With `CN1CCN(CC(=O)N2c3ccccc3C(=O)Nc3cccnc32)CC1` the figure was 95.1% (inactive); with `CC(C)(C)[C@]1(O)CCN2C[C@H]3c4ccccc4CCc4cccc(c43)[C@@H]2C1`, 71.1% (inactive) and 90% (inactive); with `CCCCCCCCC(=O)NCc1ccc(O)c(OC)c1`, 98.1% (inactive).
With `O=c1[nH]ccc2c(O)cccc12` the figure was 0% (inactive); with `O=C(N[C@@H](Cc1ccccc1)C(=O)CCl)OCc1ccccc1`, 0% (inactive).
With `CCCN1CCC[C@@H](c2cccc(O)c2)C1` the figure was 91.2% (inactive); with `Oc1ccc2c3c1O[C@H]1[C@@H](O)CC[C@@]4(O)C(C2)N(CC2CCC2)CCC314` (stereo not given in full), 81.2% (inactive); with `C[C@](N)(Cc1ccc(O)c(O)c1)C(=O)O`, 97.4% (inactive).
For the molecule `COC(=O)[C@H]1[C@H]2C[C@@H]3c4[nH]c5cc(OC)ccc5c4CCN3C[C@H]2C[C@@H](OC(=O)c2cc(OC)c(OC)c(OC)c2)[C@@H]1OC`, the vessel count % control was 75.8% (inactive).
As to `NCCCNCCSP(=O)(O)O`, the vessel count % control was 93.3% (inactive).
With `CCCN(CCC)C1CCc2ccc(O)cc2C1` (stereo not given) the figure was 87.6% (inactive).
With `NS(=O)(=O)c1cccc2c1c([N+](=O)[O-])cc1nc(O)c(O)nc12` the figure was 111% (inactive).
As to `CCCCCCCCCCCCCCCCCCOC[C@H](COP(=O)([O-])OCC[N+](C)(C)C)OC`, the vessel count % control was 97.5% (inactive).
With `CCN(CC)C(=O)c1ccc(O)c(OC)c1` the figure was 96.8% (inactive); with `C#CCN(C)[C@@H](C)Cc1ccccc1`, 74.7% (inactive).
With `CCn1cnc2c(Nc3cccc(Cl)c3)nc(N[C@@H]3CCCC[C@@H]3N)nc21` the figure was 88.4% (inactive).
With `C[C@]12CC[C@@H]3c4ccc(O)cc4CC[C@H]3[C@@H]1CC[C@@H]2O` the figure was 104% (inactive); with `N#C/C(=C\c1ccc(O)c(O)c1)C(=O)Nc1ccccc1`, 104% (inactive).
Turning to `CC(C)(Oc1ccc(C2CC2(Cl)Cl)cc1)C(=O)O` (stereo not given), the vessel count % control was 96.9% (inactive).
With `NS(=O)(=O)c1cc2c(cc1Cl)NC=NS2(=O)=O` the figure was 135% (inactive).
Take `Nc1nc2ccc(Cl)cc2c2nc(-c3ccco3)nn12`: the vessel count % control was 95.7% (inactive).
`NC(=NCCC[C@H](N)C(=O)O)N[N+](=O)[O-]`: the vessel count % control is 96.2% (inactive).
With `COc1cc(C[C@@H](C)N)c(OC)cc1I` the figure was 93.2% (inactive); with `NC(=S)NCCCC(N)C(=O)O` (stereo not given), 119% (inactive); with `NC(=S)c1ccc[n+]([C@@H]2O[C@@H](COP(=O)([O-])OP(=O)(O)OC[C@H]3O[C@@H](n4cnc5c(N)ncnc54)C(OP(=O)(O)O)[C@H]3O)C(O)C2O)c1` (stereo not given in full), 101% (inactive).
Turning to `COC(=O)C(N)Cc1ccc(Cl)cc1` (stereo not given), the vessel count % control was 82.4% (inactive).
With `Nc1ncnc2c1nc(Sc1ccc(Cl)cc1)n2C1OC2COP(=O)(O)O[C@@H]2[C@@H]1O` (stereo not given in full) the figure was 88.9% (inactive); with `CCCN1CCO[C@@H]2c3cc(O)ccc3OC[C@H]21`, 69.9% (inactive) and 97.2% (inactive); with `CCCCCCCCCCCCCCCCOCC(COCC(F)(F)F)OP(=O)(O)OCO` (stereo not given), 109% (inactive).
With `O=c1c(-c2ccc(O)cc2)coc2cc(O)cc(O)c12` the figure was 107% (inactive); with `Cc1c(C)c2c(c(C)c1O)CCC(C)(CN1CCN(c3cc(N4CCCC4)nc(N4CCCC4)n3)CC1)O2` (stereo not given), 99.2% (inactive); with `C[C@H](O)C(=O)C1=Nc2c(nc(N)[nH]c2=O)NC1`, 117% (inactive).
With `CCCCC#Cc1nc(N)c2ncn([C@@H]3O[C@H](C(=O)NCC)[C@@H](O)[C@H]3O)c2n1` the figure was 110% (inactive); with `NCCCCN=C(N)N`, 106% (inactive); with `CC(N)[C@H](O)c1ccc(O)c(O)c1` (stereo not given in full), 106% (inactive).
With `Cc1cc(NC(=O)Nc2ccc3c(ccn3C)c2)sn1`, the vessel count % control was 112% (inactive).
With `CC(C)(C(=O)O)c1ccc(C(O)CCCN2CCC(C(O)(c3ccccc3)c3ccccc3)CC2)cc1` (stereo not given) the figure was 116% (inactive).
In the case of `CC1C(=O)N(C)C(=O)c2nc[nH]c21` (stereo not given), the vessel count % control was 98.5% (inactive).
Consider `Nc1nnc(-c2cccc(Cl)c2Cl)c(N)n1`, for which the vessel count % control was 62.2% (inactive).
With `Cc1ccc(N(CC2=NCCN2)c2cccc(O)c2)cc1` the figure was 77.7% (inactive); with `Clc1ccccc1C(c1ccccc1)(c1ccccc1)n1ccnc1`, 114% (inactive); with `Cc1nccc2c1[nH]c1ccccc12`, 86.1% (inactive).
With `COc1ccc2[nH]cc(CCN)c2c1` the figure was 108% (inactive); with `N[C@H](CCCCCP(=O)(O)O)C(=O)O`, 84.2% (inactive).
`CC[N+](CC)(CC)CC(=O)Nc1c(C)cccc1C`: the vessel count % control was 85.1% (inactive).
With `NC(=O)CC[C@H](N)C(=O)O`, the vessel count % control is 104% (inactive).
Consider `O=C(O)C1CCCNC1` (stereo not given), for which the vessel count % control is 120% (inactive).
With `O=C(O)c1cc([N+](=O)[O-])ccc1NCCCc1ccccc1` the figure was 92.5% (inactive).
With `NC(=O)CN1CC(O)CC1=O` (stereo not given) the figure was 90.1% (inactive); with `NCC(O)(CS(=O)(=O)O)c1ccc(Cl)cc1` (stereo not given), 94.5% (inactive); with `NCCCCCCCCCCN`, 146% (inactive).
With `C=CC[C@H](N)C(=O)O` the figure was 111% (inactive).
`CC(O)C(O)[C@H]1CNc2nc(N)[nH]c(=O)c2N1` (stereo not given in full): the vessel count % control was 125% (inactive).
With `CN(C)c1cc2c(Nc3ccc4c(cnn4Cc4ccccc4)c3)ncnc2cn1` the figure was 84.7% (inactive).
With `CC/C(=C(\c1ccccc1)c1ccc(OCCN(C)C)cc1)c1ccccc1` the figure was 64.7% (inactive).
For `CNCCCC1c2ccccc2C=Cc2ccccc21`, the vessel count % control was 96% (inactive).
With `CN1CCC[C@H]1c1cccnc1` the figure was 120% (inactive); with `CCN(CC)CC#CCOC(=O)C(O)(c1ccccc1)C1CCCCC1` (stereo not given), 125% (inactive).
